Assay results taken from PMC5772648, “Targeted NUDT5 inhibitors block hormone signaling in breast cancer cells” (Nature Communications, 2018).
Like-named read-outs stand apart in the source and are kept apart here. Each block holds one compound with its values, some of them ahead of it.

Tests used:
human NUDT5 = target: T1, human NUDT5 (Homo sapiens, UniProt Q9UKK9); test: enzyme-coupled malachite green assay (MG assay), ADPR hydrolysis; type: biochemical; details: for IC50: NUDT5, ADPR substrate
T1 construct: His-tag (N); made in house; host or cells: E. coli BL21 (DE3) R3 pRARE2
Source text: We next sought to develop small molecule NUDT5 inhibitors to further probe the role of NUDT5 in ADPR metabolism. A high-throughput, screening-compatible NUDT5 inhibition assay was established using slight modifications to the aforementioned MG procedure (Fig. 2a)[15],[27]. Briefly, ADPR, NUDT5 and calf intestinal alkaline phosphatase (CIP) were combined in a coupled enzymatic assay, as described in the online methods. In turn, ADPR was hydrolyzed to AMP and R5P by NUDT5, and the released R5P was further degraded to ribose and inorganic phosphate (Pi) by CIP. Free Pi was subsequently detected using the malachite green reagent. The screen was conducted using a combination of the Chemical Biology Consortium of Sweden (CBCS) primary screening set and several commercial libraries from Enamine, TimTec, Maybridge and ChemDiv. In total, ~72 000 distinct chemical entities were screened for their potential inhibition of NUDT5 at a concentration of 10 µM (Supplementary Table 1, Supplementary Fig. 2a, b). Execution of this screening campaign was split between two different occasions. The screening performance in the two screening campaigns was excellent (average z´ factors of 0.87 and 0.85, Supplementary Fig. 2c), resulting in a hit limit as defined by the average and three standard deviations of the library compound responses of 10.1 and 18.4% inhibition, respectively (Supplementary Table 1, Supplementary Fig. 2a, b). This translated to 53 and 475 hits (0.3 and 0.8% hit rate, respectively), yielding 528 total hits from the 2 separate screening occasions.
Activity of NUDT5 and MTH1 with a panel of potential substrates [2-OH-ATP, 2-OH-dATP, 8-oxo-dGDP, GDP and 8-oxo-GTP (Jena Biosciences), 8-oxo-dGTP (TriLink Biotechnologies), dATP (ThermoFisher Scientific), dGTP, GTP and ADPR (Sigma-Aldrich)] was assessed in reaction buffer (100 mM Tris Acetate pH 7.5, 40 mM NaCl, 10 mM Mg Acetate) at 22 °C. For ADPR, alkaline phosphatase from bovine intestinal mucosa (10 U/ml; Sigma-Aldrich) was added as coupled enzyme, while other substrates were coupled to E. coli pyrophosphatase (0.2 U/mL, Sigma-Aldrich). After 30 min incubation with shaking, formed inorganic phosphate was detected by addition of malachite green reagent. Absorbance at 630 nm was read after 15 min incubation with shaking using a Hidex Sense plate reader. The potency of NUDT5 inhibitors was assessed similarly as above (and in the screening campaign) by monitoring ADPR hydrolysis; details are in the Supplementary Information.
Small molecule library composition
The screen for NUDT5 inhibitors was conducted at Chemical Biology Consortium Sweden (www.cbcs.se). Two screening campaigns completed in August 2012 and in March 2013 respectively comprised a combination of in-house and commercially available libraries, amounting to a total of 75679 compounds. The commercial compounds originate from Enamine, TimTec, MayBridge and ChemDiv. The in-house libraries were donated by Biovitrum AB, Sweden (the origin and composition is described previously)2. For long-term storage, the compounds are kept frozen at - 20°C as 10 mM solutions in dimethyl sulfoxide (DMSO) under low humidity conditions in REMP 96 Storage Tube Racks in a REMP Small-Size Store™. To facilitate screening an aliquot of the stock solutions have been transferred to Labcyte 384 LDV plates (LP-0200) to enable dispensing using an Echo 550™ acoustic liquid handler (LabCyte). For both screening campaigns 40 nl of the compound solutions were dispensed directly into columns 1-22 of the 384-well assay plates (Nunc 242757), while columns 23 and 24 were reserved for controls as outlined below. The plates were sealed with a Peelable Aluminium seal (Agilent 24210-001) using a PlateLoc thermal microplate sealer (Agilent) and kept at room temperature until used. The final compound concentration in the screen was 10 µM with a final DMSO concentration of […]
Enzymatic assay applied for screening and hit confirmation […]

[1] = target: T2, NUDT5 in intact HL-60 cells (Homo sapiens, UniProt Q9UKK9); test: intact cell CETSA; type: cell-based; details: 20 µM, 83 °C
T2 construct: endogenous in cells; host or cells: HL-60
Protocol: For CETSA experiments with cells treated in culture, 1 × 10^6 HL-60 were treated with DMSO (0.1 % v/v final) or 20 µM compound for 3 h at 37 °C and 5% CO2 in a humidified incubator. T47D^WT cells were treated instead with 80 µM TH1659, 15 µM TH5423/5424 and 1.5 µM TH5427. The cells were harvested, washed twice with PBS and resuspended in TBS with protease inhibitors, as above. Heating was identical as before, except that immediately following heating, the cell suspensions were snap frozen in a dry ice/ethanol bath and freeze-thawed, as previously, to lyse cells. Centrifugation at 20 000 × g for 20 min at 4 °C removed cellular debris and protein aggregates, and lysates were prepared for western blotting.

[2] = target: T3, NUDT5 in HL-60 cell lysates (Homo sapiens, UniProt Q9UKK9); test: cell lysate CETSA (HT-CETSA); type: binding; details: 20 µM, 83 °C
T3 construct: endogenous in cells; host or cells: HL-60
Protocol: Target engagement in cells was determined by the cellular thermal shift assay (CETSA)[29]. Briefly, cell lysate thermal shift assays were performed with 1 × 10^6 HL-60 cells per temperature/condition. Cells were collected and washed once with PBS and resuspended in TBS with protease inhibitor cocktail (Mini cOmplete, EDTA-free, Roche) at 60 µL/1 × 10^6 cells. The cells were then aliquoted and lysed by freeze-thawing three times with 3-min incubations (3x, 3 min.+3 min.) using an ethanol/dry ice bath and water bath at 37 °C. The lysates were then centrifuged at 20,000×g for 20 min at 4 °C to remove cellular debris. Supernatants were then transferred to PCR strip tubes and treated with 0.5 µL DMSO (0.8% v/v final) or 20 µM inhibitor for 20 min at room temperature. Lysates with compounds were heated at the indicated temperature in a Veriti Thermal Cycler (Applied Biosystems) for 3 min, then cooled for another 3 min at room temperature. They were then centrifuged at 20 000 × g for 20 min at 4 °C to pellet protein aggregates and 45 µL was removed and prepared for western blotting analysis.

solubility = type: physicochemical
purified NUDT5 = target: T4, purified NUDT5 (Homo sapiens, UniProt Q9UKK9); test: differential scanning fluorimetry (DSF); type: binding; details: 20 µM compound; for Tm: DMSO 74; for ΔTm at 20 µM: read-out: shift in melting temperature (Tm)
T4 construct: His-tag (N); made in house; host or cells: E. coli BL21 (DE3) R3 pRARE2
Protocol: Differential scanning fluorimetry (DSF)[5],[47] was performed with 5 µM purified NUDT5, 20 µM NUDT5 inhibitor and 5x Sypro Orange added per well added to a 96-well PCR plate. Each experiment was performed in duplicate. Temperature gradients from 25 to 95 °C (increasing at a rate of 1 °C per minute) were completed with readings every minute on a CFX96 Real-Time PCR machine (Bio-Rad). Melting temperatures were determined as the minimum of the negative first derivative plots with CFX Maestro software (Bio-Rad).

[3] = read-out: MG assay IC50 (Biochemical IC50)

SMILES: COc1ccc2c(c[n+](C)c3c4cc5c(cc4ccc23)OCO5)c1OC [chelerythrine, reference compound]
- IC50 (human NUDT5; read-out: MG assay IC50): > 100000 nM

SMILES: O=c1cc(-c2ccccc2)oc2ccccc12 [flavone, reference compound]
- IC50 (human NUDT5; read-out: MG assay IC50): > 100000 nM

SMILES: O=C(O)/C=C/c1ccc(O)cc1 [p-coumaric acid, reference compound]
- IC50 (human NUDT5; read-out: MG assay IC50): > 100000 nM

Now from value to compound, other results behind:

- IC50 (human NUDT5; read-out: MG assay IC50): > 100000 nM
SMILES: O=c1cc(N2CCOCC2)oc2c(-c3ccccc3)cccc12 [LY294002, reference compound]

- IC50 (human NUDT5; read-out: MG assay IC50): 580 nM
SMILES: Cc1cccc(-c2nnc(Cn3cnc4c3c(=O)n(C)c(=O)n4C)o2)c1 [TH1167]
- NUDT5 stabilization in intact cells [1]: did not show sufficient target engagement
- NUDT5 stabilization in cell lysates [2]: did not show sufficient target engagement

- NUDT5 stabilization in intact cells [1]: showed activity by CETSA in intact cells
- solubility (solubility): very poor solubility
- MG assay potency compared with TH1713 (human NUDT5): equipotent with TH1713
- IC50 (human NUDT5; [3]): 70 nM
- Tm (purified NUDT5): 79 °C
- ΔTm at 20 µM (purified NUDT5): 5 °C
SMILES: Cn1c(=O)c2c(ncn2Cc2nnc(-c3ccc(Cl)c(Cl)c3)o2)n(C)c1=O [TH1533]

- solubility (solubility): very poor solubility
- fold greater potency over TH1167 (human NUDT5; MG assay): more than 8 fold
- IC50 (human NUDT5; [3]): 70 nM
- Tm (purified NUDT5): 79 °C
- ΔTm at 20 µM (purified NUDT5): 5 °C
SMILES: Cc1cccc(-c2nnc(Cn3c(N(C)C)nc4c3c(=O)n(C)c(=O)n4C)o2)c1 [TH1713]
- NUDT5 stabilization in intact cells [1]: only TH1533 showed activity by CETSA in intact cells
